Data taken from publication PMC12446422, “Breastfeeding on ART and a closer look at drug transfer to HIV-exposed uninfected infants” (Scientific Reports, 2025).
“And” between values parts separate entries of the source, which are not always exact repeats. Equal values may be shown once. “Also recorded” adds a separate entry of the source.

How the values were obtained:
[1] = statement in discussion; cited from earlier work
[2] = Relative infant dose (RID): infant ART level divided by mother's ART level; assay type: in vivo, human; conditions: for < 10% RID: target RID expressed as infant serum level
Procedure: (§1) For all HIV-exposed children visits, clinical examinations and blood sampling took place at the age of one, four and 18 to 24 months. […] Routine blood tests included blood cell counts with differentials, transaminases, bilirubin at the first presentation, HIV-PCR and at 18–24 months or after cessation of breastfeeding HIV serology was performed. Primary outcome was infant serum drug exposure; breast-milk concentrations served as supportive secondary data. Serum samples of mothers and infants were drawn during visits to our clinic. Neither the timing of maternal drug intake and breastfeeding, nor the timing of the blood samples, was standardized. Therefore, no pharmacokinetic calculations could be performed. When available, additional serum samples of infants or mothers and a breast milk sample were sent to the Drug monitoring laboratory, Division of Infectious Diseases, Department of Internal Medicine II, University of Würzburg Medical Center, Germany. […] To assess the infant’s ART drug exposure upon breastfeeding, we calculated the relative infant dose (RID). The RID is a commonly used tool for assessing drug exposure and is calculated by dividing the infant’s ART level by the mother’s ART level, expressed as a decimal or percentage[13],[14]. All information for this study was derived from routine clinical exams and was, when available, retrospectively extracted from the patients’ medical records. […] For analysis, the HEU children were divided in 2 groups: HEU breastfed infants (n = 8) and HEU formula-fed infants (n = 62). […] All research was performed in accordance with relevant guidelines and regulations. Data collection and analysis were carried out in Microsoft Excel and R.
The RID is used for clinical risk assessment, with a target RID of below 10% indicating a low risk of adverse drug reactions in infants[16],[17].

[3] = target range for drug trough levels in adults; cited from earlier work
[4] = ART drug monitoring in serum of breastfed HEU infants (HPLC-UV); assay type: in vivo, human; conditions: for Infant serum level, in words: breastfed infants, against detection limit or adult target range; for concentration at 6 months (infant age) / concentration at 1 month (infant age) / concentration at 4 months (infant age) / concentration at 14 days (infant age): human; for concentration at 6 months (infant age): 6 months of age, breastfeeding exclusive, partial or stopped
Procedure: (§2) HIV-exposed infants were followed at the Pediatric Infectious Diseases Outpatient Clinic at the Department of General Pediatrics according to the current German and European guidelines for HIV-exposed or infected children[6],[11]. MLWH were followed at the department of Infection Medicine, Medical Service Centre Clotten, Freiburg. […] Two mothers (infants 2 and 4) were treated with dolutegravir 50 mg (DTG), abacavir 600 mg (ABC), and lamivudine 300 mg (3TC) once daily. The […] of infant 3 received tenofovir alafenamide/emtricitabine 25/200 mg (TAF/FTC) once daily in combination with nevirapine 200 mg (NVP) twice daily.
as §1

[5] = ART drug monitoring in maternal serum (HPLC-UV); assay type: in vivo, human; conditions: for Maternal serum level, in words: against adult target range
Procedure: as §2, §1

HEU breastfed infants = experiment: Absolute neutrophil count of ART-exposed HEU breastfed infants; assay type: in vivo, human
Procedure: as §1
ART serum levels above a 10% RID of the adult target range and neutropenia <1,0 (1000/µl) are indicated in bold.

[6] = ART drug monitoring in breast milk (HPLC-UV); assay type: in vivo, human; conditions: oral, read-out: ART level in breast milk (BM); for concentration at 6 months (infant age): human one
Procedure: as §2, §1

[7] = statement in discussion; cited from earlier work; remark: listed apart in the source
[8] = all occasions, infant serum below detection, infant 4 (DTG), 8 (RAL), 5 (DRV/r), 7 (RPV)
[9] = child, infant 1 (RPV), infant 3 (nevirapine), infant 2 (DTG)
[10] = serum, other: breastfeeding (maternal ART), read-out: ART level in infant serum (IS)
[11] = 14 days, breastfed infant exposed to maternal ART, ZDV prophylaxis given
[12] = serum, other: breastfeeding (maternal ART), breastfed infant (entry one), read-out: ART level in infant serum (IS)

Compound	Lipophilicity [1]	RID (relative infant dose) [2, 8] [%]	RID (relative infant dose) [2, 9] [%]	< 10% RID [2] [ng/mL]	Adult trough level [3] [ng/mL]	Infant serum level, in words [4]	concentration at 6 months (infant age) [4, 10] [ng/mL]	Maternal serum level, in words [5]	Neutro_abs (absolute neutrophil count) (HEU breastfed infants; 4 months)	Neutro_abs (absolute neutrophil count) (HEU breastfed infants; 18 months)	Neutro_abs (absolute neutrophil count) (HEU breastfed infants; [11])	concentration at 6 months (infant age) [6] [ng/mL]	concentration at 1 month (infant age) ([6]; human three) [ng/mL]	Neutro_abs (absolute neutrophil count) (HEU breastfed infants; 1 month)	Neutro_abs (absolute neutrophil count) (HEU breastfed infants; 6 months)	concentration at 4 months (infant age) ([6]; human two) [ng/mL]	concentration at 1 month (infant age) [4, 12] [ng/mL]	also measured
Cc1cc(/C=C/C#N)cc(C)c1Nc1ccnc(Nc2ccc(C#N)cc2)n1 [RPV, rilpivirine]	highly lipophilic	< 10	633	< 20	50 to 200	below the detectable range; also recorded: below the range of detection; also recorded: above the adult target range	< 50	above the adult target range; also recorded: well above the adult therapeutic range	1,80 1000/ µl and 1,15 1000/ µl and 1,05 1000/ µl	1,77 1000/ µl and 1,65 1000/ µl and 1,39 1000/ µl	2,25 1000/ µl and 2,27 1000/ µl	< 50	< 50	–	–	–	–	–
Cc1nnc(C(=O)NC(C)(C)c2nc(C(=O)NCc3ccc(F)cc3)c(O)c(=O)n2C)o1 [RAL, raltegravir]	moderately lipophilic	–	–	< 55	–	below the detectable range	–	–	–	3,35 1000/ µl	2,74 1000/ µl	–	–	1,32 1000/ µl	–	–	–	concentration at 1 month (infant age) ([4]; in vivo): < 75 ng/mL; concentration at 4 months (infant age) ([4]; in vivo): < 75 ng/mL; concentration at 14 days (infant age) ([4]; in vivo): < 75 ng/mL; concentration at 1 month (infant age) ([5]; female, human, in vivo): 872 ng/mL; concentration at 4 months (infant age) ([5]; female, human, in vivo): 184 ng/mL; concentration at 14 days (infant age) ([5]; female, human, serum, oral, 14 days of age, timing of intake and sampling not standardized, read-out: ART level in maternal serum (MS)): < 75 ng/mL; concentration at 1 month (infant age) ([6]; female, human, 1 month of age): 293 ng/mL; concentration at 4 months (infant age) ([6]; female, human, 4 months of age): 168 ng/mL; concentration at 14 days (infant age) ([6]; female, human, 14 days of age): 1760 ng/mL
CC(C)CN(C[C@@H](O)[C@H](Cc1ccccc1)NC(=O)O[C@H]1CO[C@H]2OCC[C@H]21)S(=O)(=O)c1ccc(N)cc1 [DRV, darunavir]	lipophilic	–	–	< 380	–	below detectable levels	–	–	0,64 1000/ µl	–	1,16 1000/ µl	< 250	< 250	0,69 1000/ µl	1,15 1000/ µl	< 250	–	concentration at 14 days (infant age) ([4]; in vivo, breastfed infant (entry one), read-out: ART level in infant serum (IS)): < 50 ng/mL; concentration at 4 months (infant age) ([4]; in vivo, breastfed infant (entry three), read-out: ART level in infant serum (IS)): < 50 ng/mL; Plasma protein binding [7]: high; concentration at 1 month (infant age) ([5]; female, human, in vivo, 1 month of age, read-out: ART level in maternal serum (MS)): 3800 ng/mL; concentration at 4 months (infant age) ([5]; female, human, in vivo, 4 months of age, read-out: ART level in maternal serum (MS)): 4130 ng/mL; concentration at 6 months (infant age) ([5]; female, human, in vivo, 6 months of age, read-out: ART level in maternal serum (MS)): 3360 ng/mL
Cc1ccnc2c1NC(=O)c1cccnc1N2C1CC1 [NVP, nevirapine]	highly lipophilic	–	171	< 670	1600 to 6700	–	649	–	1,20 1000/ µl	1,32 1000/ µl	–	–	–	1,53 1000/ µl	3,33 1000/ µl	–	1210	concentration at 4 months (infant age) ([4]; serum, other: breastfeeding (maternal ART), breastfed infant (entry two), read-out: ART level in infant serum (IS)): 1150 ng/mL; concentration at 6 months (infant age) ([5]; human one, serum, oral, read-out: ART level in maternal serum (MS)): 3930 ng/mL
C[C@@H]1CCO[C@H]2Cn3cc(C(=O)NCc4ccc(F)cc4F)c(=O)c(O)c3C(=O)N12 [DTG, dolutegravir]	moderately lipophilic	< 10	240	< 400	250 to 4000	–	–	within the therapeutic range	–	3,25 1000/ µl	3,53 1000/ µl	680	< 50	–	–	648	< 50	concentration at 4 months (infant age) ([5]; human two, serum, oral, read-out: ART level in maternal serum (MS)): 2410 ng/mL
